Read-outs that look alike come from different tables or passages of the source.
Experiments:
[1] = tested on: ZIKV strain PAN2016; experiment: Plaque reduction inhibition assay, ZIKV PAN2016 in Vero E6 cells; format: cell-based; conditions: Zika virus, Vero C1008, Vero E6 cells; for IC50: plaque reduction, read-out: IC50 PAN2016; for IC90: 90% plaque reduction, read-out: IC90 against ZIKV PAN2016 strain
[2] = tested on: ZIKV strain R116265; experiment: Plaque reduction inhibition assay, ZIKV R116265 in Vero E6 cells; format: cell-based; conditions: Zika virus, Vero C1008
[3] = tested on: ZIKV strain PAN2015; experiment: Plaque reduction inhibition assay, ZIKV PAN2015 in Vero E6 cells; format: cell-based; conditions: Zika virus, Vero C1008
[4] = tested on: ZIKV strain FLR; experiment: Plaque reduction inhibition assay, ZIKV FLR in Vero E6 cells; format: cell-based; conditions: Zika virus, Vero C1008; plaque reduction, Vero E6 cells; read-out: IC50 FLR
[5] = tested on: ZIKV strain PRVABC59; experiment: Plaque reduction inhibition assay, ZIKV PRVABC59 in Vero E6 cells; format: cell-based; conditions: Zika virus, Vero C1008; plaque reduction, Vero E6 cells
[6] = tested on: ZIKV strain PLCal_ZV; experiment: Plaque reduction inhibition assay, ZIKV PLCal_ZV in Vero E6 cells; format: cell-based; conditions: Zika virus, Vero C1008; plaque reduction, Vero E6 cells; read-out: IC50 PLCal_ZV
[7] = tested on: ZIKV strain IbH 30656; experiment: Plaque reduction inhibition assay, ZIKV IbH 30656 in Vero E6 cells; format: cell-based; conditions: Zika virus, Vero C1008; plaque reduction, Vero E6 cells; read-out: IC50 IbH 30656
[8] = tested on: ZIKV mosquito strain MEX 2–81; experiment: Plaque reduction inhibition assay, ZIKV MEX 2–81 in Vero E6 cells; format: cell-based; conditions: Zika virus, Vero C1008; plaque reduction, Vero E6 cells; read-out: IC50 MEX 2–81
[9] = tested on: ZIKV rhesus macaque strain MR 766; experiment: Plaque reduction inhibition assay, ZIKV MR 766 in Vero E6 cells; format: cell-based; conditions: Zika virus, Vero C1008, in Macaca mulatta; plaque reduction, Vero E6 cells; read-out: IC50 MR 766
[10] = biological target: ZIKV full-length E protein (Zika virus, UniProt A0A024B7W1); format: binding; conditions: ELISA
[11] = biological target: T1, ZIKV envelope protein domain III (EDIII) protein (Zika virus, UniProt A0A024B7W1); format: binding
T1 construct: E residues 298–409 fused with a C-terminal human Fc; made in house

[12] = tested on: ZIKV strain PAN2016; format: cell-based, Zika virus (ZIKV); conditions: for IC50: Zika virus, Vero C1008, ZIKV PAN2016, Vero E6, natural product without combination, read-out: IC50 Alone; for Fold of Enhancement (natural product with gossypol) / CI (combination index) of gossypol with the named natural product: ZIKV PAN2016; for Fold of Enhancement (natural product with gossypol): (IC50 alone)/(IC50 in the mixture)—1; for CI (combination index) of gossypol with the named natural product: CI < 1 synergy
[13] = tested on: ZIKV strain FLR; format: cell-based, Zika virus (ZIKV); conditions: ZIKV FLR; for IC50: Zika virus, Vero C1008, Vero E6, natural product without combination, read-out: IC50 Alone; for Fold of Enhancement (natural product with gossypol): (IC50 alone)/(IC50 in the mixture)—1; for CI (combination index) of gossypol with the named natural product: CI < 1 synergy
[14] = tested on: ZIKV strain PRVABC59; format: cell-based, Zika virus (ZIKV); conditions: for IC50: Zika virus, Vero C1008, ZIKV PRVABC59, Vero E6, natural product without combination, read-out: IC50 Alone; for Fold of Enhancement (natural product with gossypol) / CI (combination index) of gossypol with the named natural product: ZIKV PRVABC59; for Fold of Enhancement (natural product with gossypol): (IC50 alone)/(IC50 in the mixture)—1; for CI (combination index) of gossypol with the named natural product: CI < 1 synergy
[15] = in vitro; conditions: African green monkey
[16] = in vitro; conditions: African green monkey; remark: listed apart in the source
[17] = tested on: ZIKV strain R103451; experiment: Plaque reduction inhibition assay, ZIKV R103451 in Vero E6 cells; format: cell-based; conditions: Zika virus, Vero C1008; plaque reduction, Vero E6 cells; read-out: IC50 R103451
[18] = tested on: DENV-1-V1792; experiment: Plaque reduction inhibition assay, DENV-1 in LLC-MK2 cells; format: cell-based; conditions: Dengue virus, DENV1
[19] = tested on: DENV-2-V594; experiment: Plaque reduction inhibition assay, DENV-2 in LLC-MK2 cells; format: cell-based; conditions: Dengue virus, DENV2
[20] = tested on: DENV-3-V1043; experiment: Plaque reduction inhibition assay, DENV-3 in LLC-MK2 cells; format: cell-based; conditions: Dengue virus, DENV3
[21] = tested on: DENV-4-PR 06-65-740; experiment: Plaque reduction inhibition assay, DENV-4 in LLC-MK2 cells; format: cell-based; conditions: Dengue virus, DENV4
[22] = tested on: ZIKV (PAN2016); experiment: Time-of-addition experiment, ZIKV PAN2016 in Vero E6 cells; format: cell-based, Zika virus (ZIKV); conditions: for inhibition at 30 µM: Zika virus
[23] = tested on: Vero E6 cells
[24] = in vitro; conditions: rhesus monkey
[25] = tested on: Vero E6 cells; experiment: Combinatorial cytotoxicity of gossypol with other natural products, CCK8; conditions: Vero E6, (CC50 alone)/(CC50 in the mixture)—1
[26] = Vero C1008, 1 h, read-out: inhibition of ZIKV infection, step d: cotreatment at 37 °C

Sequence of ZIKV full-length E protein (A0A024B7W1 291-794): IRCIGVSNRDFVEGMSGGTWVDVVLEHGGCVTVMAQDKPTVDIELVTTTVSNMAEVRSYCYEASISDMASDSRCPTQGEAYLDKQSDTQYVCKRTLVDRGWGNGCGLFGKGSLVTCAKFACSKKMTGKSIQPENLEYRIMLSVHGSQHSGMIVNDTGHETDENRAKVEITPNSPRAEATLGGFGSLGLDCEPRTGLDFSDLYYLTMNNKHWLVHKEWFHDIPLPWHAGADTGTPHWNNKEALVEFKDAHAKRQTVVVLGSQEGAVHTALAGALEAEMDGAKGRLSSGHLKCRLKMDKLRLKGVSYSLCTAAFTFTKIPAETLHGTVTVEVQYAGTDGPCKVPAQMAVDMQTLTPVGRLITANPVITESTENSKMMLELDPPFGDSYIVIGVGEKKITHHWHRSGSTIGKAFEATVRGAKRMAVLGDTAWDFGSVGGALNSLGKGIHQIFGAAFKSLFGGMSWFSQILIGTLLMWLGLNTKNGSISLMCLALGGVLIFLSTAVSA
T1 sequence (A0A024B7W1 588-699): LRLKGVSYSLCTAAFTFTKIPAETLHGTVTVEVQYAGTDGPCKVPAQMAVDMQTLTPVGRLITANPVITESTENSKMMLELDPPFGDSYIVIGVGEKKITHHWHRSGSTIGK

Structure (SMILES)	IC50 [1]	IC50 [2]	IC50 [3]	IC50 [4]	IC50 [5]	IC50 [6]	IC50 [7]	IC50 [8]	IC50 [9]	binding to ZIKV full-length E protein (in words) [10]	binding to ZIKV EDIII protein (in words) ([11]; ELISA)	IC50 [12]	IC50 [13]	IC50 [14]	CC50 at 3 days [15]	CC50 at 3 days [16]	IC90 [1]	IC50 [17]	IC50 [18]	IC50 [19]	further results
CC(C)C[C@H](NC(=O)[C@H](Cc1ccccc1)NC(=O)c1cnccn1)B(O)O [Bortezomib, bortezomib, reference compound]	9.75 ± 0.03 µM	8.94 ± 0.1 µM	9.88 ± 0.12 µM	9.62 ± 0.59 µM	11.7 ± 0.82 µM	31 ± 0.71 µM	9.35 ± 0.23 µM	7.67 ± 0.31 µM	9.51 ± 0.26 µM	did not bind	did not bind	10.65 ± 0.01 µM	9.7 ± 0.76 µM	12.17 ± 0.07 µM	17 ± 0.2 µM	17.77 ± 0.17 µM					
COc1cc(/C=C/C(=O)CC(=O)/C=C/c2ccc(O)c(OC)c2)ccc1O [Curcumin, curcumin]	13.7 ± 0.72 µM	14 ± 0.15 µM	13.7 ± 0.37 µM	16.6 ± 0.34 µM	12.8 ± 0.35 µM	10.8 ± 0.73 µM	13.6 ± 0.31 µM	5.62 ± 0.52 µM	11.4 ± 0.29 µM	much lower binding affinity	much lower binding affinity	13.2 ± 0.81 µM	17.05 ± 0.08 µM	12.46 ± 0.05 µM	52.86 ± 0.52 µM	53.1 ± 1.83 µM	~47.7 µM	11.2 ± 0.37 µM	9.37 ± 0.47 µM	3.07 ± 0.07 µM	IC50 [20]: 2.09 ± 0.12 µM; IC50 [21]: 4.83 ± 0.24 µM; inhibition at 30 µM ([22]; Vero C1008, 1 h, read-out: inhibition of ZIKV infection, step c: cotreatment at 4 °C (attachment)): 75 to 100%; inhibition at 30 µM [22, 26]: 75 to 100%; inhibition at 30 µM ([22]; Vero C1008, read-out: inhibition of ZIKV infection, step a: pretreatment of ZIKV): 75 to 100%; inhibition of ZIKV infection, step e: penetration (membrane fusion) ([22]; cells with ZIKV 4 °C 1 h, then natural product 37 °C 1 h, gossypol 15 µM, curcumin 30 µM, digitonin 7.5 µM, conessine 30 µM): low to no impact; inhibition of ZIKV infection, step f: postentry stage ([22]; cells with ZIKV 37 °C 1 h, then natural product 37 °C 1 h, gossypol 15 µM, curcumin 30 µM, digitonin 7.5 µM, conessine 30 µM): low to no impact; inhibition of ZIKV infection, step b: pretreatment of cells ([22]; cells with natural product 37 °C 1 h before ZIKV, gossypol 15 µM, curcumin 30 µM, digitonin 7.5 µM, conessine 30 µM): low to no impact; Fold of Enhancement (natural product with gossypol) [12]: 2.60; CI (combination index) of gossypol with the named natural product [12]: 0.52; Fold of Enhancement (natural product with gossypol) [13]: 2.84; CI (combination index) of gossypol with the named natural product [13]: 0.49; Fold of Enhancement (natural product with gossypol) [14]: 5.46; CI (combination index) of gossypol with the named natural product [14]: 0.30; cytotoxicity in Vero E6 cells observed under a microscope [23]: no obvious cytotoxicity; CC50 at 3 days [24]: 59.4 ± 1.18 µM; Fold of Enhancement of cytotoxicity (natural product with gossypol) [25]: 0.28; Fold of Enhancement of cytotoxicity (natural product with gossypol) ([25]; listed as curcumin): not enhanced
C[C@H]1[C@H]2CC[C@H]3[C@@H]4CC=C5C[C@@H](N(C)C)CC[C@]5(C)[C@H]4CC[C@]23CN1C [Conessine, conessine]	9.75 ± 0.26 µM	7.18 ± 0.13 µM	7.98 ± 0.29 µM	9.65 ± 0.58 µM	9.08 ± 0.33 µM	8.11 ± 0.37 µM	10.2 ± 0.41 µM	10.94 ± 0.06 µM	7.44 ± 0.11 µM	did not bind		10 ± 0.25 µM	10.1 ± 0.45 µM	9.4 ± 0.21 µM	323.71 ± 0.25 µM	314.6 ± 2.32 µM	~31.8 µM	11.6 ± 0.33 µM	7.09 ± 0.08 µM	6.61 ± 0.6 µM	IC50 [20]: 7.41 ± 0.04 µM; IC50 [21]: 7.27 ± 0.31 µM; inhibition at 30 µM [22, 26]: 80 to 96%; inhibition at 30 µM ([22]; Vero C1008, 1 h, read-out: inhibition of ZIKV infection, step e: penetration (membrane fusion)): 80 to 96%; inhibition at 30 µM ([22]; Vero C1008, 1 h, read-out: inhibition of ZIKV infection, step f: postentry stage): 80 to 96%; inhibition of ZIKV infection, step c: cotreatment at 4 °C (attachment) ([22]; cells, ZIKV and natural product 4 °C 1 h, gossypol 15 µM, curcumin 30 µM, digitonin 7.5 µM, conessine 30 µM): very low to no effect; inhibition of ZIKV infection, step a: pretreatment of ZIKV ([22]; natural product with ZIKV 37 °C 1 h before cells, gossypol 15 µM, curcumin 30 µM, digitonin 7.5 µM, conessine 30 µM): very low to no effect; binding to ZIKV EDIII protein (in words) [11]: did not bind; Fold of Enhancement (natural product with gossypol) [12]: 3.44; CI (combination index) of gossypol with the named natural product [12]: 0.44; Fold of Enhancement (natural product with gossypol) [13]: 1.13; CI (combination index) of gossypol with the named natural product [13]: 0.85; Fold of Enhancement (natural product with gossypol) [14]: 6.29; CI (combination index) of gossypol with the named natural product [14]: 0.28; cytotoxicity in Vero E6 cells observed under a microscope [23]: no obvious cytotoxicity; CC50 at 3 days [24]: 303 ± 13.4 µM; Fold of Enhancement of cytotoxicity (natural product with gossypol) [25]: ~5.78
